Data as given in US9113629B2, “4-amino-6-(4-substituted-phenyl)-picolinates and 6-amino-2-(4-substituted-phenyl)-pyrimidine-4-carboxylates and their use as herbicides” (DOW AGROSCIENCES LLC, priority 2013, dated 2015).
Read-outs that look alike come from different tables or passages of the source.

Legend:
[1] = system: Key Broadleaf Weed and Crop Species; assay: Post-emergent Test II herbicidal activity (Table 5); assay type: in vivo; conditions: post-emergence, 336 h, 14 days after application; for pest or weed control at 70 g/ha: application rate 70 g ai/ha; for pest or weed control at 140 g/ha: application rate 140 g ai/ha
Summary of the method: (§1)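 Test species were raised 7–21 d under greenhouse conditions until reaching the first or second true leaf, sprayed with formulated compound at 187 L/ha, and kept subirrigated to avoid wash-off. Fourteen days later, damage was rated visually on a 0–100% scale against untreated plants.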

[2] = system: Key Grass and Sedge Weeds as well as Grass Crops; assay: Post-emergent Test II herbicidal activity (Table 6); assay type: in vivo; conditions: post-emergence, 336 h; for pest or weed control at 70 g/ha: 70 g ai/ha; for pest or weed control at 140 g/ha: 140 g ai/ha
Summary of the method: as §1

[3] = ABUTH: velvetleaf (Abutilon theophrasti), read-out: Visual Growth Reduction (%) 14 Days After Application, ABUTH
[4] = AMARE: redroot pigweed (Amaranthus retroflexus), read-out: Visual Growth Reduction (%) 14 Days After Application, AMARE
[5] = BRSNN: oilseed-rape, canola (Brassica napus), read-out: Visual Growth Reduction (%) 14 Days After Application, BRSNN
[6] = CHEAL: lambsquarters (Chenopodium album), read-out: Visual Growth Reduction (%) 14 Days After Application, CHEAL
[7] = EPHHL: wild poinsettia (Euphorbia heterophylla), read-out: Visual Growth Reduction (%) 14 Days After Application, EPHHL
[8] = HELAN: sunflower (Helianthus annuus), read-out: Visual Growth Reduction (%) 14 Days After Application, HELAN
[9] = VIOTR: wild pansy (Viola tricolor), read-out: Visual Growth Reduction (%) 14 Days After Application, VIOTR
[10] = CYPES: yellow nutsedge (Cyperus esculentus), read-out: Visual Growth Reduction (%) 14 Days After Application, CYPES
[11] = DIGSA: crabgrass (Digitaria sanguinalis), read-out: Visual Growth Reduction (%) 14 Days After Application, DIGSA
[12] = ECHCG: barnyardgrass (Echinochloa crus-galli), read-out: Visual Growth Reduction (%) 14 Days After Application, ECHCG
[13] = ORYSA: rice (Oryza sativa), crop, read-out: Visual Growth Reduction (%) 14 Days After Application, ORYSA
[14] = SETFA: giant foxtail (Setaria faberi), read-out: Visual Growth Reduction (%) 14 Days After Application, SETFA
[15] = SORVU: grain sorghum (Sorghum vulgare), read-out: Visual Growth Reduction (%) 14 Days After Application, SORVU
[16] = TRZSS (wheat, Triticum aestivum), crop, read-out: Visual Growth Reduction (%) 14 Days After Application, TRZSS
[17] = ZEAMX: maize, corn (Zea mays), crop, read-out: Visual Growth Reduction (%) 14 Days After Application, ZEAMX

For `COC(=O)c1nc(-c2ccc(Br)cc2F)nc(N)c1OC` [Compound 35], which pest or weed control at 70 g/ha [1, 3] is on record?
The pest or weed control at 70 g/ha was 95 to 100%.

What about the pest or weed control at 140 g/ha [1, 3] of the same molecule?
The pest or weed control at 140 g/ha was 95 to 100%.

And the pest or weed control at 70 g/ha [1, 4]?
Its pest or weed control at 70 g/ha is 75 to 84%.

And the pest or weed control at 140 g/ha [1, 4]?
Its pest or weed control at 140 g/ha is 95 to 100%.

What about the pest or weed control at 70 g/ha [1, 5] of the same molecule?
Its pest or weed control at 70 g/ha is 95 to 100%.

What about the pest or weed control at 140 g/ha [1, 5] of the same molecule?
The pest or weed control at 140 g/ha was 95 to 100%.

And the pest or weed control at 70 g/ha [1, 6]?
Its pest or weed control at 70 g/ha is 95 to 100%.

What about the pest or weed control at 140 g/ha [1, 6] of the same molecule?
Its pest or weed control at 140 g/ha is 95 to 100%.

And the pest or weed control at 70 g/ha [1, 7]?
Its pest or weed control at 70 g/ha is 95 to 100%.

And the pest or weed control at 140 g/ha [1, 7]?
Its pest or weed control at 140 g/ha is 95 to 100%.

What about the pest or weed control at 70 g/ha [1, 8] of the same molecule?
The pest or weed control at 70 g/ha was 95 to 100%.

What about the pest or weed control at 140 g/ha [1, 8] of the same molecule?
The pest or weed control at 140 g/ha was 95 to 100%.

And the pest or weed control at 70 g/ha [1, 9]?
Its pest or weed control at 70 g/ha is 85 to 94%.

What about the pest or weed control at 140 g/ha [1, 9] of the same molecule?
Its pest or weed control at 140 g/ha is 95 to 100%.

What about the pest or weed control at 70 g/ha [2, 10] of the same molecule?
The pest or weed control at 70 g/ha was 95 to 100%.

And the pest or weed control at 140 g/ha [2, 10]?
The pest or weed control at 140 g/ha was 95 to 100%.

What about the pest or weed control at 70 g/ha [2, 11] of the same molecule?
The pest or weed control at 70 g/ha was 45 to 59%.

What about the pest or weed control at 140 g/ha [2, 11] of the same molecule?
Its pest or weed control at 140 g/ha is 85 to 94%.

What about the pest or weed control at 70 g/ha [2, 12] of the same molecule?
Its pest or weed control at 70 g/ha is 30 to 44%.

What about the pest or weed control at 140 g/ha [2, 12] of the same molecule?
The pest or weed control at 140 g/ha was 85 to 94%.

And the pest or weed control at 70 g/ha [2, 13]?
Its pest or weed control at 70 g/ha is 0 to 29%.

What about the pest or weed control at 140 g/ha [2, 13] of the same molecule?
Its pest or weed control at 140 g/ha is 0 to 29%.

And the pest or weed control at 70 g/ha [2, 14]?
The pest or weed control at 70 g/ha was 0 to 29%.

What about the pest or weed control at 140 g/ha [2, 14] of the same molecule?
Its pest or weed control at 140 g/ha is 45 to 59%.

What about the pest or weed control at 70 g/ha [2, 15] of the same molecule?
Its pest or weed control at 70 g/ha is 45 to 59%.

What about the pest or weed control at 140 g/ha [2, 15] of the same molecule?
Its pest or weed control at 140 g/ha is 60 to 74%.

And the pest or weed control at 70 g/ha [2, 16]?
Its pest or weed control at 70 g/ha is 30 to 44%.

And the pest or weed control at 140 g/ha [2, 16]?
The pest or weed control at 140 g/ha was 45 to 59%.

And the pest or weed control at 70 g/ha [2, 17]?
Its pest or weed control at 70 g/ha is 95 to 100%.

And the pest or weed control at 140 g/ha [2, 17]?
Its pest or weed control at 140 g/ha is 95 to 100%.

And the melting point?
Its melting point is 163 to 165 °C.
